Measurements: patent US20260035753A1, “METHODS OF DETERMINING BACTERIA AND MANUFACTURING A FIBROUS WEB AND TOOLS AND USES RELATED THERETO” (KEMIRA OYJ, priority 2020, published 2026)

How the values were obtained:
Thermicanus [1] = experiment: Biocide trial on a paper machine using recycled fiber; Thermicanus quantified with specific qPCR
Procedure: The best primer sequences for a qPCR assay specific for Thermicanus were 5′-[…]-3′ (SEQ ID NO: 2) and 5′-[…]-3′ (SEQ ID NO: 3). Allowing maximum 2 mismatches, these primers detect no 16S rRNA gene of other bacterial genera. The length of the PCR product is 236 bp for Thermicanus aegyptius, the only Thermicanus species described thus far. Specific amplification (one peak in qPCR melt curve analysis) was produced from Thermicanus genomic DNA at annealing temperatures 59-63° C. in qPCR master mix with 2.2 mM Mg^2+ (50 mM salt) and SYBR Green.
Besides in silico verifications, the validity of the Thermicanus qPCR assay with the novel primers was verified with 16 board process DNA samples from RCF pulp and white water (FIG. 1). Samples were selected based on sequencing results to be taxonomically diverse, include wide range of Thermicanus, and include communities with close relatives of Thermicanus including Geobacillus (Bacillaceae). SYBR Green qPCR detection chemistry was used with hot-start qPCR mastermix on BioRad CFX96 cycler or thermal cycler, using annealing temperature of 61° C. for stringent hybridization. The Pearson correlation between the NGS and qPCR-derived Thermicanus abundance was 0.993, when total bacteria were quantified based on genomic DNA concentration (FIG. 1A), and 0.997, when total bacteria were quantified based on general bacterial qPCR (FIG. 1B). These very high correlations verify the specificity and validity of the novel Thermicanus qPCR primers for the quantification of Thermicanus in board process samples.
A biocide trial on a paper machine using recycled fiber was ran with monochloramine (MCA). Samples from stock storage and cloudy white water were taken 7 months and 1 day before starting the trial and 3 weeks after starting the MCA trial. The amount of Thermicanus was quantified with Thermicanaceae-specific qPCR as described in Example 3. MCA trial decreased Thermicanus densities in stock storage and white water by ≥99%.

Thermicanus [2] = experiment: Microbe control test in recycled fiber pulp (white water + recycled packaging board), 24 h contact time; type: cell-based; conditions: after 24 h at +50° C.; NGS sequencing and total bacterial qPCR; control 3.2*10^7; performic acid 14 mg/l, monochloramine 15 mg/l, mixture in total 15 mg/l, mixture in total 8 mg/l + zinc 7 mg/l
Procedure: White water from a liner machine using recycled fiber was taken and dry, brown, recycled packaging board was homogenized with the water so that the final consistency of fibers was 2.0%. The pulp was divided into portions and biocides and enzyme inhibitor (zinc) were added into the bottles according to the Table 2. pH of the pulp at the beginning of the test was 7.75 and ORP +175 mV. After this the bottles were incubated at +50° C. for 24 hours. At 24 h pH and ORP were measured and samples for DNA analysis were collected. The amount of Thermicanus was quantified as described in examples 1 and 2.
Biocide and enzyme inhibitor treated samples had clearly higher pH and ORP than control sample. Said biocide and/or enzyme inhibitor treatments also decrease the amount of bacteria belonging to the family Thermicanaceae or genus Thermicanus: The control sample contained 3.2*10^7 Thermicanus cells/ml, and the treated samples>90% less, 1.2-2.2*10^6 cells/ml. Thus, in the treated samples both the physical conditions were better and the amount of Thermicanus was lower than in the control sample.

NCl [Monochloramine, monochloramine]
Thermicanus, white water, cells/ml (Thermicanus [1]; cloudy white water, 3 weeks after start of MCA trial, before trial 2.7*10^8 (7 months) and 2.1*10^8 (1 day)): 7.5*10^5 cells/ml
decrease of Thermicanus densities (Thermicanus [1]; stock storage and white water, 3 weeks after start of MCA trial versus before trial): ≥ 99%
Thermicanus, stock storage, cells/ml (Thermicanus [1]; stock storage, 3 weeks after start of MCA trial, before trial 5.8*10^8 (7 months) and 3.9*10^8 (1 day)): 3.8*10^6 cells/ml
Thermicanus, cells/ml (Thermicanus [2]): 1.2*10^6 cells/ml

O=COO [Performic acid]
Thermicanus, cells/ml (Thermicanus [2]): 2.0*10^6 cells/ml
